Measurements as given in BindingDB's records for doi:10.1021/acschembio.5b00452 (Oregon Health & Science University, 2015).

Legend:
N-glycosylase/DNA lyase [1] = molecular target: T1, N-glycosylase/DNA lyase (Homo sapiens, UniProt O15527); assay: Fluorescence-based Assay; conditions: pH 7.5; 37 °C
Experimental: The fluorescence-based assay outlined in Figure 2 a was performed in black, low volume 384-well plates with a fi nal volume of 10 µL per well. Nine uL of assay buffer (20 mM Tris-HCl, 100 mM KCl, 0.1% BSA, 0.01% Tween-20, pH 7.5) was added toeach well, followed by the addition of 1 uL of DMSO (control) or 50 µM compound in DMSO. […] Control wells containing just substrate or just substrate + enzyme were used to calculate Z values for each plate.

N-glycosylase/DNA lyase [2] = molecular target: T1, N-glycosylase/DNA lyase; assay: Gel-based Cleavage Assay
Experimental: Substrate (5 µL, 50 nM) was added to bring the final volume to 10 µL. The reaction was incubated 30 min at 37 °C, quenched by the addition of 10 µL of formamide, and put on ice. […] Band intensities were quantified using the Image Studio Lite Software (LI-COR).

T1 sequence (O15527 whole entry): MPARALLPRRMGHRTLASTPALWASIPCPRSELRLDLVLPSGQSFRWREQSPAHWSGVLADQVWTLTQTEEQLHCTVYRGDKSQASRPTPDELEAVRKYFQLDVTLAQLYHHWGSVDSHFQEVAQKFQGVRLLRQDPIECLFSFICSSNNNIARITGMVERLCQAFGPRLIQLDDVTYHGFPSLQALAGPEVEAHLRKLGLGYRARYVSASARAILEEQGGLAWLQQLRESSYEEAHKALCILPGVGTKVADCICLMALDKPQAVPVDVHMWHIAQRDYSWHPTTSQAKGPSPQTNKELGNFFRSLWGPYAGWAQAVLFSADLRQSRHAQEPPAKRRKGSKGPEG

IC50 (N-glycosylase/DNA lyase [1]) [nM] | IC50 (N-glycosylase/DNA lyase [2]) [nM] | SMILES
4150 |  | COc1cc(C)c(S(=O)(=O)n2cc(C)nc2-c2ccccc2)cc1C [1‐(4‐Methoxy‐2,5‐dimethylbenzenesulfonyl)‐4‐methyl‐2‐phenylimidazole (0105)]
4560 |  | CCCN1CCC(=NNC(=O)c2ccc(Cl)cc2Cl)CC1 [2,4‐Dichloro‐N'‐(1‐propylpiperidin‐4‐ ylidene)benzohydrazide (0181)]
3380 |  | CC(Oc1cccc(Cl)c1)C(=O)NN (stereo not given) [2‐(3‐Chlorophenoxy)propanehydrazide (01)]
1530 |  | Cc1cc(OCC(=O)NN)cc(C)c1Cl [2‐(4‐Chloro‐3,5‐dimethylphenoxy)acetohydrazide (0159)]
1560 |  | NNC(=O)COc1cccc2ccccc12 [2‐(Naphthalen‐1‐yloxy)acetohydrazide (040)]
350 | 220 | NNC(=O)c1sc2cccc(Cl)c2c1Cl [3,4‐Dichloro‐1‐benzothiophene‐2‐carbohydrazide (08)]
2130 |  | CCCC/C(C)=N\NC(=O)c1cccc(Br)c1 [3‐Bromo‐N'‐[(2Z)‐hexan‐2‐ylidene]benzohydrazide (0156)]
3780 |  | C=CCC/C(C)=N\NC(=O)c1cccc(Br)c1 [3‐Bromo‐N'‐[(2Z)‐hex‐5‐en‐2‐ylidene]benzohydrazide (0155)]
300 |  | NNC(=O)c1sc2ccccc2c1Cl [3‐Chloro‐1‐benzothiophene‐2‐carbohydrazide (O8-Cl)]
> 50000 |  | NC(=O)c1ccc(Br)cc1 [4-Bromo-benzamide]
> 50000 | > 50000 | NNC(=O)c1ccncc1 [4-pyridinecarbohydrazide(Isoniazid)]
390 |  | NNC(=O)c1ccc(Br)cc1 [Benzoylhydrazine, P‐bromo (0151-Hy)]
> 50000 |  | Cc1cc(C(=O)NNCc2ccccc2)no1 [ISOCARBOXAZID]
290 | 340 | O=C(NN=C1CCCCC1)c1cc2ccccc2cc1O [N'‐Cyclohexylidene‐3‐hydroxynaphthalene‐2‐carbohydrazide (0158)]
7170 |  | C/C(=N\NC(=O)c1cc2ccccc2cc1O)c1ccc2c(c1)OCO2 [N'‐[(1E)‐1‐(2H‐1,3‐benzodioxol‐5‐yl)ethylidene]‐3‐hydroxynaphthalene‐2‐carbohydrazide (0179)]
> 50000 |  | NNc1nncc2ccccc12 [NSC_3637]
> 50000 |  | O=C(CCNNC(=O)c1ccncc1)NCc1ccccc1 [Nialamide]
